In patent US20100093611A1, “COMPOUNDS AND METHODS FOR TREATING OR PREVENTING AUTOIMMUNE DISEASES” (priority 2007, published 2010):

Key:
[1] = tested on: IP-10; experiment: IFN-α induced IP-10 secretion from human monocytes; type: cell-based; details: 500 IU/ml IFN-α, 48 h (FIG. 6A)
Procedure: (§1) Freshly isolated monocytes were treated with 500 IU/ml IFN-α with or without indicated compounds for 48 h. Supernatants were collected and MCP-1 and IP-10 levels were analyzed by Searchlight Inc. Percentage inhibition represents inhibition of the upregulation of chemokine induced by IFN-α compared to the vehicle control. Panel A: Effect of compounds on IP-10 secretion. Panel B: Effect of compounds on MCP-1 secretion. Each bar represents the average+/−SEM of three independent experiments. Panel C: IKK2 inhibitor IV blocked IFN-α induced IP-10 protein level in vivo. Female NZBW/F1 mice were treated with either antibody (i.p. injection 30 mg/kg) or IKK2 inhibitor (45 mg/kg BID) as described in materials and methods. Adenovirus-IFN-a (1×10^10 viral particles) was administrated i.v. at time 0. Samples were collected 6 h post-stimulation, IP-10 protein level was measured by ELISA. Data representative of two experiments.
(§2) Multiple chemokines, including monocyte chemo-attractant protein-1 (MCP-1) and activated T cell chemokine interferon inducible protein 10 (IP-10) regulate leukocytes migration and infiltration into inflammated organs^34. Expression of MCP-1 and IP-10 are elevated in serum of SLE patients^34, 35 and in monocytes of healthy donors stimulated in vitro by IFN-α^36. Consequently, the effect of Apicidin 1a, IKK2 inhibitor IV, and JAK inhibitors in IP-10 and MCP-1 expression induced by IFN-α from human monocytes was examined.
(§3) For monocyte differentiation assays, human monocytes were isolated from the blood of healthy donors according to manufactory's instructions (Miltenyi Biotec Inc; Auburn Calif.). 5×10^5 freshly prepared monocytes were pre-incubated with compounds or vehicle control for 30 min. […] Cell surface protein were stained with FITC-labeled anti-CD80, PE-labeled anti-CD123, PEcy7 labeled anti-CD38, APC cy7 labeled MHC class II (all BD, San Jose, Calif.) and analyzed on a FACS Calibur flow cytometer (BD). Cytokine and chemokine levels in supernatants from monocyte differentiation assays were measured using searchlight human cytokine array (Pierce Inc, Woburn, Mass.). […]

[2] = tested on: MCP-1; experiment: IFN-α induced MCP-1 secretion from human monocytes; type: cell-based; details: 500 IU/ml IFN-α, 48 h (FIG. 6B)
Procedure: as §1, §2, §3

[3] = tested on: IFN-α signaling pathway; experiment: High-Throughput Integrated Transcriptional Screening (HITS), qPCR of IFN-α signature gene set in THP-1 cells; type: cell-based, human; details: compound 10 μM, 100 IU/ml IFN-α 4 h, a gene inhibited by more than 50% gets its maximum score, scores added, hit if greater than 50% of maximum
Procedure: The unique gene expression signature of the IFN-α signaling pathway was established in THP-1 cells by comparing the gene profiles of the fully activated IFNα pathway to the basal gene expression. THP-1 cells were stimulated either with 100 IU/ml IFN-α, 100 IU/ml IFN-γ, or 10 ng/ml TNF-α to generate the activated pathway gene signatures.
In one embodiment, the compounds of Table 1 were used to identify different mechanisms of action as identified from primary screening. If a gene is inhibited by more than 50% then it receives its maximum score (all or none type of scoring).
THP-1 cells seeded at 8×10^5 cells/ml were treated with either compound (10 μM final concentration) or vehicle control (0.1% DMSO) for 30 minutes prior to a four hour stimulation with 100 IU/ml IFN-α or PBS. Plates were incubated at 37° C. in a humidified incubator. Cell lysis and RNA isolation were carried out according to the manufacturer's instructions (TurboCapture mRNA Kit, Qiagen Inc.). PCR primer pairs were designed for each of the genes identified through the global gene expression analysis using Primer 3 based method (see below for primer sequences). Each primer was evaluated for the efficient production of a single band of appropriate size in the presence of template RNA and the lack of distinct amplification products in a non-template control. Real time PCR reactions were carried out in SYBR green master mix (Quanta biosciences) on ABI9700 thermocyclers.
We used the house keeping gene, GAPDH, as the normalization control for the IFN-α gene signature set to correct the overall variability in the qPCR based HITS process. The corrected profiles were then normalized to the basal gene expression levels determined by using the vehicle only treatments. We subtracted the vehicle only control gene value from the test compound gene profiles, gene per gene (see FIG. 1).

[4] = tested on: CD80, CD123 and CD38 cell surface expression on monocytes; experiment: IFN-α induced primary human monocyte activation/differentiation, cell surface markers by FACS; type: cell-based; details: 500 IU/ml IFN-α, 48 h, FACS (FIG. 5)
Procedure: Freshly isolated monocytes from healthy donor were pre-incubated with compounds or vehicle control for 0.5 hour before stimulation with 500 IU/ml IFN-α. Cell surface expression of CD80, CD123 and CD38 was evaluated by FACS 48 h post-stimulation. Each bar represents the average+/−SEM of three independent experiments.
Since deregulated differentiation of DCs induced by IFN-α may be a critical contributing factor in SLE^13, the impact of Apicidin 1a, IKK2 inhibitor IV, and JAK inhibitors in DC differentiation was examined. Human monocytes were stimulated with IFN-α and the expression of CD38 CD80 and CD123 differentiation markers was monitored^33.
For monocyte differentiation assays, human monocytes were isolated from the blood of healthy donors according to manufactory's instructions (Miltenyi Biotec Inc; Auburn Calif.). 5×10^5 freshly prepared monocytes were pre-incubated with compounds or vehicle control for 30 min. Cells were then incubated in RPMI 1640 medium (Invitrogen, Carlsbad, Calif.) including 10% fetal calf serum (Invitrogen) supplemented with 500 IU/ml IFN-α 2a for 48 hr. Cell surface protein were stained with FITC-labeled anti-CD80, PE-labeled anti-CD123, PEcy7 labeled anti-CD38, APC cy7 labeled MHC class II (all BD, San Jose, Calif.) and analyzed on a FACS Calibur flow cytometer (BD). Cytokine and chemokine levels in supernatants from monocyte differentiation assays were measured using searchlight human cytokine array (Pierce Inc, Woburn, Mass.). (see FIG. 5)

[5] = tested on: SLE-associated gene signature as induced by SLE serum; experiment: SLE serum-induced IFN-α gene signature in freshly isolated monocytes (HITS qPCR); type: cell-based, human; details: for Percentage inhibition of the six most robustly induced IFN-α signature genes induced by SLE serum: 1 μm, monocytes stimulated with 50% SLE patient serum, mean of six genes vs vehicle control; for Upregulation of the six most robustly induced IFN-α signature gene set by 50% lupus serum (in words): freshly isolated monocytes, dose dependent (FIG. 4)
Source text: RNA from lysed cells was examined by qPCR analysis in HITS assay. […] Each bar represents the average+/−SEM of three independent experiments using serum from different SLE patients.
Stimulation of healthy donor PBMCs with serum isolated from SLE patients induces the up-regulation of IFN-α pathway-associated genes (Interfon-induced genes, IFIGs), such as MX1^31. Furthermore, expression of IFIG correlates with disease severity and organ involvement^31, 32. To further evaluate the role of small molecular inhibitors on the type I IFN gene signature, freshly isolated monocytes stimulated with 50% lupus serum were used in HITS assays. […] Importantly, these experiments were performed with SLE serum from patients with well characterized biochemical profiles.
SLE patient and control serum were purchased from Bioreclamation (Hicksville, N.Y.). IFN-α 2a was obtained from PBL Biomedical laboratories (Piscataway, N.J.). Fresh PBMCs from healthy donor were prepared by Ficoll-hypaque fraction according to the manufactory's instruction. Cells were cultured at 2×10^5 cells/0.1 ml in 96-well flat-bottomed plates in culture medium.
To determine the effect of compounds on gene expression, compounds and vehicle controls were pre-incubated with cells for 30 min at 37° C. before stimulation with 50% lupus serum or 100 IU/ml IFN-α 2a were incubated with PBMC. After 6 h stimulation, cells were lysed in Qiagen 2XTCL lysis buffer followed by HITS analysis (see FIG. 2).

[6] = tested on: HSV-1; experiment: In vitro anti-viral assay, HSV-1/luciferase replication in Hep-2 cells with IFN-α; type: cell-based, Herpes Simplex Virus-1
Procedure: Hep-2 cells were seeded at 2×10^4 cells/well in 96 well plates. Cells were infected with HVS1 at an Multiplicity Of Infection (MOI) of 5 for 1 h at 37° C. 24 hours post-seeding. Virus was aspirated, cells were washed, and 200 μl of medium with or without IFN-α or compound were added as indicated. After 48 h, cells were washed, lysed and luciferase activity were measured according to the manufacturer's instructions. […] Each bar represents the mean+/−SEM of triplicates from one experiment.
Herpes Simplex Virus-1 (HSV-1) represents one of the major recurrent virus infections observed in SLE patients^37. Type-I and Type-II IFN signals are known to block HSV-1 dissemination in mice^38, and as a consequence, a therapeutic approach that neutralizes their combined activity may constitute an important safety concern. Therefore, the impact of Apicidin 1a, IKK2 inhibitor IV, and JAK inhibitors on HSV-1 replication regulated by IFN-α in Hep-2 cells was examined in vitro. HSV-1/luciferase was used to infect Hep-2 cells, and viral replication was monitored by luciferase expression.
Hep-2 cells were propagated in MEM (Invitrogen) with 10% fetal bovine serum. HSV-1 recombination virus with both firefly and Renilla luciferase genes in a divergent orientation from a single multiple cloning site were a gift from Dr. Leib's lab. Hep-2 cells were seeded at 2×10^4 cells/well in 96 well plate, 24 h post seeding, cells were infected with virus at an MOI of 5, after absorption for 1 h at 37° C., free viral particles were removed by aspiration, cells were washed, and 200 μl medium containing IFN-α with or without test compounds. After 48 h incubation, cells were washed and lysed in 20 μl of Passive Lysis Buffer (Promega Inc; Madison, Wis.) frozen, thawed, and assayed for firefly and Renilla luciferase activity using the Dual Luciferase Assay kit (Promega).

[7] = tested on: freshly isolated monocytes; experiment: Cytotoxicity at the concentration used in the SLE serum monocyte assay; type: cell-based, human; details: 1 μm
[8] = tested on: IP-10; experiment: IFN-α induced chemokine release in vivo (adenovirus IFN-α5, serum IP-10 ELISA); set-up: species or system Female NZBW/F1 mice
Procedure: as §1
Next, the effect of IKK-2 inhibitor IV in IP-10 and MCP-1 expression was examined in vivo. To induce IP-10 and MCP-1 expression, mice were infected with adenovirus encoding IFN-α5. As a result, IP-10 but not MCP-1 levels were detected in serum (data not shown). […]
Female NZBW/F1 mice (Jackson Laboratories, Bar Harbor, Me.) were housed in pathogen-free conditions with access to food and water. […] Serum levels of IP10 were assessed by ELISA (R&D Systems, Minneapolis, Minn.). […]

Row | Compound | Expression of IP-10 induced by IFN-α [1] | MCP-1 expression induced by IFN-α [2] | HTS Score [3] | CD38 expression [4] | CD80 expression [4] | CD123 expression [4] | Percentage inhibition of the six most robustly induced IFN-α signature genes induced by SLE serum [5] | Upregulation of the six most robustly induced IFN-α signature gene set by 50% lupus serum (in words) [5] | Effect on anti-viral effects of IFN-α at low dose ([6]; HSV-1, 0.1 μm (FIG. 7C)) | IFN-α dependent anti-viral activity at higher dose ([6]; HSV-1, higher dose where MCP-1 production is inhibited (FIG. 7C)) | Cytotoxicity [7] | IFN-α induced IP-10 protein level in vivo (in words) ([8]; Female NZBW/F1 mice, 45 mg/kg BID, 6 h post-stimulation, ELISA (FIG. 6C)) | Inhibition of levels of serum IP-10 ([8]; mice infected with adenovirus encoding IFN-α5, 6 h post-stimulation, IKK2 inhibitor 45 mg/kg BID, antibody i.p. 30 mg/kg) | Effect on IFN-α dependent anti-viral activity (HSV-1 replication) ([6]; MOI 5, 48 h, even at higher doses (FIG. 7A, 7B))
1 | CCC(=O)CCCCC[C@@H]1NC(=O)[C@H]2CCCCN2C(=O)C([C@@H](C)CC)NC(=O)[C@H](Cc2cn(OC)c3ccccc23)NC1=O (stereo partly drawn) [Compound 2, Apicidin] | no neutralization | totally neutralizes MCP-1 expression | 0.89 | limited to the highest dose of 1 μM | blocks CD80 expression | limited to the highest dose of 1 μM | 80% | blocked the upregulation | inhibited anti-viral effects of IFN-α | abolished or viral growth was actually promoted | did not exhibit cytotoxicity |  |  | 
2 | O=C(CCCCCN1C(=O)c2cccc3cccc(c23)C1=O)NO [Compound 3, scriptaid] |  |  | 0.88 |  |  |  |  |  |  |  |  |  |  | 
3 | CC(/C=C/C(=O)NO)=C\[C@@H](C)C(=O)c1ccc(N(C)C)cc1 [Compound 4, Trichostatin A] |  |  | 1 |  |  |  |  |  |  |  |  |  |  | 
4 | NC(=O)Nc1sc(-c2ccc(F)cc2)cc1C(N)=O [Compound 5, IKK-2 Inhibitor IV] | block the expression of IP-10 | restricted to the highest dose | 0.95 | dose-dependent inhibition | dose-dependent inhibition | dose-dependent inhibition | 77% | blocked the upregulation |  |  | did not exhibit cytotoxicity | blocked | 98% | retained the majority of IFN-α dependent anti-viral activity
5 | CC(C)(C)c1nc2c3ccc(F)cc3c3c(=O)[nH]ccc3c2[nH]1 [Compound 7, JAK Inhibitor I] | block the expression of IP-10 | restricted to the highest dose | 0.9 | dose-dependent inhibition | dose-dependent inhibition | dose-dependent inhibition | 60% | blocked the upregulation |  |  | did not exhibit cytotoxicity |  |  | 
6 | C=CC(=O)C1=CC2C=CC=CC2C=C1 (stereo not drawn) [Compound 8, JAK3 Inhibitor V] |  |  | 0.79 |  |  |  |  |  |  |  |  |  |  | 
7 | Oxamflatin [Compound 1] |  |  | 1 |  |  |  |  |  |  |  |  |  |  | 
